In patent US20250374919A1, “AQUEOUS SUSPENSION AGROCHEMICAL COMPOSITION CONTAINING NATURAL RUBBER” (SUMITOMO CHEMICAL COMPANY, LIMITED, priority 2022, published 2025):

Experiment: Water solubility of agrochemical active ingredient at 20° C.
Format: physicochemical

Molecule	water solubility at 20° C. [ppm]
Inpyrfluxam	16.4
Cc1nnc(Cl)c(-c2c(F)cccc2F)c1-c1ccccc1 [Pyridachlometyl]	0.8
